PubChem BioAssay (NCI)
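Results reflect a 48-hour exposure of cells in 96-well plates to compound at five concentrations. TGI is the concentration that stops growth completely.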

Tests used:
Assay in all cases: growth of human tumour cells (NCI), 48 h
K-562 leukemia = tested on: K-562 leukemia
SN12C renal = tested on: SN12C renal
OVCAR-5 ovarian = tested on: OVCAR-5 ovarian
MDA-MB-231 breast = tested on: MDA-MB-231 breast
U251 CNS = tested on: U251 CNS
SK-MEL-5 melanoma = tested on: SK-MEL-5 melanoma
EKVX NSCLC = tested on: EKVX NSCLC
MCF7 breast = tested on: MCF7 breast
SNB-19 CNS = tested on: SNB-19 CNS
OVCAR-3 ovarian = tested on: OVCAR-3 ovarian
MDA-N = tested on: MDA-N
NCI-H460 lung = tested on: NCI-H460 lung
SNB-75 CNS = tested on: SNB-75 CNS
M14 melanoma = tested on: M14 melanoma
MOLT-4 leukemia = tested on: MOLT-4 leukemia
HCC-2998 colon = tested on: HCC-2998 colon
CAKI-1 renal = tested on: CAKI-1 renal
T-47D breast = tested on: T-47D breast
A549 NSCLC = tested on: A549 NSCLC
NCI/ADR-RES ovarian = tested on: NCI/ADR-RES ovarian
UACC-257 melanoma = tested on: UACC-257 melanoma
OVCAR-4 ovarian = tested on: OVCAR-4 ovarian
KM12 colon = tested on: KM12 colon
786-0 renal = tested on: 786-0 renal
COLO 205 colon = tested on: COLO 205 colon
ACHN renal = tested on: ACHN renal
HCT-15 colon = tested on: HCT-15 colon
NCI-H522 lung = tested on: NCI-H522 lung
HOP-62 NSCLC = tested on: HOP-62 NSCLC
MDA-MB-435 = tested on: MDA-MB-435
BT-549 breast = tested on: BT-549 breast
SW-620 colon = tested on: SW-620 colon
OVCAR-8 ovarian = tested on: OVCAR-8 ovarian
NCI-H226 lung = tested on: NCI-H226 lung
SK-MEL-2 melanoma = tested on: SK-MEL-2 melanoma
UACC-62 melanoma = tested on: UACC-62 melanoma
UO-31 renal = tested on: UO-31 renal
SF-268 CNS = tested on: SF-268 CNS
CCRF-CEM leukemia = tested on: CCRF-CEM leukemia
SK-MEL-28 melanoma = tested on: SK-MEL-28 melanoma
RPMI-8226 leukemia = tested on: RPMI-8226 leukemia
HCT-116 colon = tested on: HCT-116 colon
NCI-H23 lung = tested on: NCI-H23 lung
MALME-3M melanoma = tested on: MALME-3M melanoma
PC-3 prostate = tested on: PC-3 prostate
DU-145 prostate = tested on: DU-145 prostate
RXF 393 renal = tested on: RXF 393 renal
HT29 colon = tested on: HT29 colon
SF-295 CNS = tested on: SF-295 CNS
TK-10 renal = tested on: TK-10 renal
HL-60(TB) leukemia = tested on: HL-60(TB) leukemia
SK-OV-3 ovarian = tested on: SK-OV-3 ovarian
HS 578T breast = tested on: HS 578T breast
IGROV1 ovarian = tested on: IGROV1 ovarian
HOP-92 NSCLC = tested on: HOP-92 NSCLC
SF-539 CNS = tested on: SF-539 CNS
LOX IMVI melanoma = tested on: LOX IMVI melanoma
A498 renal = tested on: A498 renal
SR leukemia = tested on: SR leukemia

For `O=C1c2ccccc2C2(c3ccc(F)cc3)NCCN12` (stereo unspecified), the TGI (K-562 leukemia) was over 100 µM, the TGI (SN12C renal) was over 100 µM and the TGI (OVCAR-5 ovarian) was over 100 µM. It also gave a TGI (MDA-MB-231 breast) of over 100 µM, a TGI (U251 CNS) of over 100 µM and a TGI (SK-MEL-5 melanoma) of over 100 µM. The TGI (EKVX NSCLC) was over 100 µM, the TGI (MCF7 breast) was over 100 µM and the TGI (SNB-19 CNS) was over 100 µM. The TGI (OVCAR-3 ovarian) was over 100 µM, the TGI (MDA-N) was over 100 µM and the TGI (NCI-H460 lung) was over 100 µM. The TGI (SNB-75 CNS) was over 100 µM, the TGI (M14 melanoma) was over 100 µM and the TGI (MOLT-4 leukemia) was over 100 µM. For the same molecule, the TGI (HCC-2998 colon) was over 100 µM, the TGI (CAKI-1 renal) was over 100 µM and the TGI (T-47D breast) was over 100 µM. It also gave a TGI (A549 NSCLC) of over 100 µM, a TGI (NCI/ADR-RES ovarian) of over 100 µM and a TGI (UACC-257 melanoma) of over 100 µM. It also gave a TGI (OVCAR-4 ovarian) of over 100 µM, a TGI (KM12 colon) of over 100 µM and a TGI (786-0 renal) of over 100 µM. The TGI (COLO 205 colon) was over 100 µM, the TGI (ACHN renal) was over 100 µM and the TGI (HCT-15 colon) was over 100 µM. The TGI (NCI-H522 lung) was over 100 µM, the TGI (HOP-62 NSCLC) was over 100 µM and the TGI (MDA-MB-435) was over 100 µM. It also gave a TGI (BT-549 breast) of over 100 µM, a TGI (SW-620 colon) of over 100 µM and a TGI (OVCAR-8 ovarian) of over 100 µM. For the same molecule, the TGI (NCI-H226 lung) was over 100 µM, the TGI (SK-MEL-2 melanoma) was over 100 µM and the TGI (UACC-62 melanoma) was over 100 µM. For the same molecule, the TGI (UO-31 renal) was over 100 µM, the TGI (SF-268 CNS) was over 100 µM and the TGI (CCRF-CEM leukemia) was over 100 µM. It also gave a TGI (SK-MEL-28 melanoma) of over 100 µM, a TGI (RPMI-8226 leukemia) of over 100 µM and a TGI (HCT-116 colon) of over 100 µM. The TGI (NCI-H23 lung) was over 100 µM, the TGI (MALME-3M melanoma) was over 100 µM and the TGI (PC-3 prostate) was over 100 µM. It also gave a TGI (DU-145 prostate) of over 100 µM, a TGI (RXF 393 renal) of over 100 µM and a TGI (HT29 colon) of over 100 µM. It also gave a TGI (SF-295 CNS) of over 100 µM, a TGI (TK-10 renal) of over 100 µM and a TGI (HL-60(TB) leukemia) of over 100 µM. The TGI (SK-OV-3 ovarian) was over 100 µM, the TGI (HS 578T breast) was over 100 µM and the TGI (IGROV1 ovarian) was over 100 µM.
`C/C(=N\Nc1nc2ccccc2[nH]1)c1ncccn1` was tested, and the TGI (HOP-92 NSCLC) was 1.93 µM, the TGI (SF-539 CNS) was 0.0543 µM and the TGI (K-562 leukemia) was over 100 µM. The TGI (SN12C renal) was 0.991 µM, the TGI (OVCAR-5 ovarian) was over 100 µM and the TGI (MDA-MB-231 breast) was over 29.2 µM. The TGI (U251 CNS) was over 100 µM, the TGI (SK-MEL-5 melanoma) was 1.34 µM and the TGI (EKVX NSCLC) was 25.8 µM. It also gave a TGI (LOX IMVI melanoma) of over 100 µM, a TGI (SNB-19 CNS) of over 100 µM and a TGI (OVCAR-3 ovarian) of 6.7 µM. The TGI (MDA-N) was over 100 µM, the TGI (NCI-H460 lung) was over 100 µM and the TGI (SNB-75 CNS) was over 90.3 µM. It also gave a TGI (M14 melanoma) of 0.322 µM, a TGI (MOLT-4 leukemia) of over 100 µM and a TGI (HCC-2998 colon) of over 100 µM. For the same molecule, the TGI (CAKI-1 renal) was 23.7 µM, the TGI (T-47D breast) was over 100 µM and the TGI (A549 NSCLC) was over 93 µM. It also gave a TGI (NCI/ADR-RES ovarian) of 0.426 µM, a TGI (UACC-257 melanoma) of over 35.2 µM and a TGI (OVCAR-4 ovarian) of over 100 µM. For the same molecule, the TGI (KM12 colon) was over 46.9 µM, the TGI (786-0 renal) was over 100 µM and the TGI (COLO 205 colon) was over 49.6 µM. For the same molecule, the TGI (ACHN renal) was 0.201 µM, the TGI (HCT-15 colon) was over 100 µM and the TGI (NCI-H522 lung) was over 64.3 µM. For the same molecule, the TGI (HOP-62 NSCLC) was 49.4 µM, the TGI (BT-549 breast) was over 100 µM and the TGI (A498 renal) was 2.23 µM. It also gave a TGI (SW-620 colon) of over 100 µM, a TGI (OVCAR-8 ovarian) of over 39 µM and a TGI (SR leukemia) of over 100 µM. It also gave a TGI (SK-MEL-2 melanoma) of 17.7 µM, a TGI (UACC-62 melanoma) of 2.88 µM and a TGI (SF-268 CNS) of over 93.3 µM. The TGI (CCRF-CEM leukemia) was over 100 µM, the TGI (HCT-116 colon) was 1.74 µM and the TGI (NCI-H23 lung) was 8.58 µM. The TGI (MALME-3M melanoma) was 8.89 µM, the TGI (PC-3 prostate) was over 66 µM and the TGI (DU-145 prostate) was over 100 µM. For the same molecule, the TGI (RXF 393 renal) was over 32.5 µM, the TGI (SF-295 CNS) was over 100 µM and the TGI (TK-10 renal) was over 78.1 µM. The TGI (HL-60(TB) leukemia) was 0.0343 µM, the TGI (SK-OV-3 ovarian) was over 100 µM and the TGI (HS 578T breast) was over 100 µM. It also gave a TGI (IGROV1 ovarian) of 9.41 µM.
